According to ChEMBL document CHEMBL1201862, “PubChem BioAssay data set” (2004):
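Protocol summary: plate cells (96-well), add compound at 5 concentrations, incubate 48 h, interpolate endpoints linearly. Abbreviation: GI50, concentration required for 50% inhibition of growth.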 Calls of active or inactive are those of the source. No stated cut-off is given here; in the data, active = GI50 up to about 1.1 µM and inactive = higher.

Assays:
Assay in all cases: growth of human tumour cells (NCI), 48 h
RXF 631 = tested on: RXF 631
DMS-273 = tested on: DMS-273
DLD-1 = tested on: DLD-1
DMS-114 = tested on: DMS-114
HOP-18 = tested on: HOP-18
KM-20L2 = tested on: KM-20L2
LXFL 529 = tested on: LXFL 529
XF498 = tested on: XF498
M19-MEL = tested on: M19-MEL

| SMILES | GI50 (RXF 631) | GI50 (DMS-273) | GI50 (DLD-1) | GI50 (DMS-114) | GI50 (HOP-18) | GI50 (KM-20L2) | GI50 (LXFL 529) | GI50 (XF498) | GI50 (M19-MEL) |
| --- | --- | --- | --- | --- | --- | --- | --- | --- | --- |
| C=C(CN(C)C)C(=O)c1ccc(OC2OC(COC(C)=O)C(OC(C)=O)C(OC(C)=O)C2OC(C)=O)cc1 (stereo unspecified) | 14.3 µM (inactive) | 6.85 µM (inactive) | 0.912 µM (active) | 5.9 µM (inactive) | 3.54 µM (inactive) | 17.4 µM (inactive) | 1.52 µM (inactive) | 1.69 µM (inactive) |  |
| CCC(=O)CCC1=Nc2nnc(CCCCc3nnc4n3C(=O)C(CCC(=O)CC)=N4)n2C1=O |  | > 100 µM (inactive) | > 100 µM (inactive) | > 100 µM (inactive) |  | > 100 µM (inactive) | > 100 µM (inactive) | > 100 µM (inactive) | > 100 µM (inactive) |
| C[N+](C)=c1nc(N2CCOCC2)ss1 | 0.337 µM (active) | > 100 µM (inactive) |  |  |  |  | > 100 µM (inactive) | > 100 µM (inactive) |  |
| c1ccc(C2SCc3nc4ccccc4n32)cc1 (stereo unspecified) |  | 33.7 µM (inactive) | 49.5 µM (inactive) | 19 µM (inactive) | 4.26 µM (inactive) | 47.6 µM (inactive) |  | 20.7 µM (inactive) | 41.7 µM (inactive) |
| COc1ccc(/C=C2\CCC(CN3CCOCC3)C2=O)cc1 (stereo unspecified) | 6.52 µM (inactive) |  | 2.79 µM (inactive) | 2.72 µM (inactive) | 5.78 µM (inactive) | 6.3 µM (inactive) | 1.59 µM (inactive) | 3.56 µM (inactive) | 4.31 µM (inactive) |
| [O-][S+]1[C@H](c2ccccc2)c2c(-c3ccccc3)sc(-c3ccccc3)c2[C@@H]1c1ccccc1 (stereo partly specified) | 39 µM (inactive) | > 100 µM (inactive) | 33 µM (inactive) | 10.2 µM (inactive) | 11.4 µM (inactive) | 5.79 µM (inactive) | > 100 µM (inactive) |  | > 100 µM (inactive) |
| O=C1C=C(N2CCCC2)C=C(N2CCCC2)C1 |  | > 100 µM (inactive) | > 100 µM (inactive) | 79.6 µM (inactive) | > 100 µM (inactive) | > 100 µM (inactive) | > 100 µM (inactive) | > 100 µM (inactive) | 28.1 µM (inactive) |
| N#CCCN(CCC#N)c1ccc(/C=C(/NC(=O)c2cc([N+](=O)[O-])ccc2Cl)C(=O)NN)cc1 |  | > 100 µM (inactive) | > 100 µM (inactive) |  | > 100 µM (inactive) | > 100 µM (inactive) | 54 µM (inactive) |  | > 100 µM (inactive) |
| Cc1cccc(NC2=NC(=O)C(CC(=O)Nc3cccc(C)c3C)S2)c1 (stereo unspecified) |  |  | > 100 µM (inactive) | 63.5 µM (inactive) |  | > 100 µM (inactive) | > 100 µM (inactive) | > 100 µM (inactive) | > 100 µM (inactive) |
| Oc1ccccc1/C=N/Cc1ccco1 | > 100 µM (inactive) |  | > 100 µM (inactive) | > 100 µM (inactive) | > 100 µM (inactive) | > 100 µM (inactive) | > 100 µM (inactive) | > 100 µM (inactive) | > 100 µM (inactive) |
| C=C1C(=O)OC2/C=C(CO)/C=C\C3OC3(C)CC(OC(=O)/C(C)=C/COC(C)=O)C12 (stereo unspecified) | 2.74 µM (inactive) | 1.97 µM (inactive) | 0.773 µM (active) | 4.35 µM (inactive) | 9.38 µM (inactive) | 4.7 µM (inactive) | 1.58 µM (inactive) | 2.47 µM (inactive) | 1.84 µM (inactive) |
| O=C(Nc1cccc2ccccc12)Oc1ccccc1C1CCCCC1 | 19.5 µM (inactive) | 21.2 µM (inactive) | 15.2 µM (inactive) | 19.9 µM (inactive) | 16.3 µM (inactive) | 20.9 µM (inactive) | 18.3 µM (inactive) |  | 22.3 µM (inactive) |
| NC(=O)C12CC3CC(CC(F)(C3)C1)C2 |  | > 100 µM (inactive) | > 100 µM (inactive) | > 100 µM (inactive) |  | > 100 µM (inactive) | > 100 µM (inactive) | > 100 µM (inactive) | > 100 µM (inactive) |
| CCOC(=O)C1=C(O)C(=O)c2ccoc2C1=O |  | > 100 µM (inactive) |  | > 100 µM (inactive) | > 100 µM (inactive) | > 100 µM (inactive) |  | > 100 µM (inactive) | > 100 µM (inactive) |
| C#CC[N+](CCO)(CCO)CCCCCCCCCCCCCCCCCC |  | 4.9 µM (inactive) | 9.25 µM (inactive) | 10.3 µM (inactive) | 9.33 µM (inactive) | 7.1 µM (inactive) |  | 4.43 µM (inactive) | 9.16 µM (inactive) |
| C=CCC1(CN(C)C)CC/C(=C\c2ccc(OC)cc2)C1=O (stereo unspecified) | 25 µM (inactive) | > 100 µM (inactive) | 34.2 µM (inactive) | 37.7 µM (inactive) | > 100 µM (inactive) | 46.2 µM (inactive) | 47.2 µM (inactive) |  | 59.8 µM (inactive) |
| CC#COS(=O)(=O)c1ccc(C)cc1 |  |  | 30.8 µM (inactive) | 32.7 µM (inactive) |  | 46.5 µM (inactive) | 41 µM (inactive) |  | 70.1 µM (inactive) |
| CC(=O)OCC1OC(n2c(=S)n(-c3ccccc3)c(=O)c3cc(Br)ccc32)C(OC(C)=O)C1OC(C)=O (stereo unspecified) |  | > 100 µM (inactive) | > 100 µM (inactive) | 99.8 µM (inactive) | > 100 µM (inactive) | > 100 µM (inactive) | 65.3 µM (inactive) | 71.8 µM (inactive) | > 100 µM (inactive) |
| COc1cc2ccc(/C(C)=N/OC(C)=O)cc2cc1OC | 97.7 µM (inactive) | 73.8 µM (inactive) |  | > 100 µM (inactive) | 58.2 µM (inactive) | > 100 µM (inactive) | 95.9 µM (inactive) | 83.6 µM (inactive) | > 100 µM (inactive) |
| C=CCC1C(=O)C(C(=O)OC)N2CCc3c([nH]c4ccccc34)C12 (stereo unspecified) |  |  | > 100 µM (inactive) | > 100 µM (inactive) |  | > 100 µM (inactive) | > 100 µM (inactive) |  | > 100 µM (inactive) |
| C[N+](C)(C)CC(=O)N/N=c1\cc(C(=O)Nc2ccc(N=O)cc2C#N)oc2cc(O)ccc12 | > 100 µM (inactive) | > 100 µM (inactive) | > 100 µM (inactive) | > 100 µM (inactive) | > 100 µM (inactive) | > 100 µM (inactive) | > 100 µM (inactive) | > 100 µM (inactive) | > 100 µM (inactive) |
| O=C1C2=C(c3ccccc31)C(c1ccccc1Cl)N1C(=O)CSC1=N2 (stereo unspecified) | > 100 µM (inactive) | > 100 µM (inactive) | > 100 µM (inactive) | 53.8 µM (inactive) |  | > 100 µM (inactive) | 74.3 µM (inactive) | 64 µM (inactive) | > 100 µM (inactive) |
| O=c1c2ccccc2n2cnc3ccc(NCCNCCO)c1c32 | 1.26 µM (inactive) |  | 2.59 µM (inactive) | 2.04 µM (inactive) | 2.4 µM (inactive) | 1.41 µM (inactive) | 2.3 µM (inactive) |  | 2.96 µM (inactive) |
| CC(=O)Oc1c(-c2ccccc2)[nH]c2cc([N+](=O)[O-])c(/C(Cl)=C/c3ccccc3)cc12 |  |  | 3.71 µM (inactive) | 2.17 µM (inactive) |  | 3.41 µM (inactive) | 3.9 µM (inactive) | 4.36 µM (inactive) | 3.31 µM (inactive) |
| O=C(CC/C(CC(=O)c1ccc(Cl)cc1)=N/O)Nc1ccc(Cl)c(Cl)c1 | > 100 µM (inactive) | > 100 µM (inactive) | > 100 µM (inactive) | 65.3 µM (inactive) | > 100 µM (inactive) | 36.2 µM (inactive) | 80.7 µM (inactive) | > 100 µM (inactive) | > 100 µM (inactive) |
| CCOc1ccc2nc(NC(=O)C(=O)C(C(=O)c3ccccc3F)C3OC(=O)c4ccccc43)sc2c1 (stereo unspecified) | 14.5 µM (inactive) | 19.1 µM (inactive) | 25.3 µM (inactive) |  |  | 27.9 µM (inactive) | 19.7 µM (inactive) | 24.1 µM (inactive) | 12.1 µM (inactive) |
| COc1ccc(CC(=O)NCCc2ccc(OC)c(OC)c2)cc1Br |  | > 100 µM (inactive) | > 100 µM (inactive) | > 100 µM (inactive) |  | > 100 µM (inactive) | > 100 µM (inactive) | 38.7 µM (inactive) |  |
| CC1=C2CC[C@@]3(C)C(=CCC3O)C2(C)CCC1=O (stereo partly specified) | > 100 µM (inactive) | > 100 µM (inactive) | > 100 µM (inactive) | > 100 µM (inactive) | > 100 µM (inactive) | > 100 µM (inactive) | > 100 µM (inactive) |  | > 100 µM (inactive) |
